Measurements as given in patent US6861448B2, “NAD synthetase inhibitors and uses thereof” (priority 1998, dated 2005).

Tests used:
[1] = target: NAD synthetase (Bacillus subtilis, UniProt P08164); experiment: NAD synthetase coupled enzyme assay; type: biochemical; settings: NAD synthetase 2.0 μg/mL; 0.1 mM NaAD; 0.2 mM ATP; pH 8.5
Excerpt: This Example illustrates the NAD synthetase enzyme inhibiting activity of some compounds of the present invention. [drawing 48] The coupled assay—production of NAD was monitored through conversion to NADH by alcohol dehydrogenase. [NADH] was monitored by 2 parallel methods: the change in absorbance at 340 nm, and fluorescence at 460 nm (excitation 320 nm). […] Controls were included for determining inhibitor background, precipitation, and ADH inhibition.

[2] = test system: Bacillus anthracis Sterne 34F2; experiment: microbe, parasite or virus in culture; type: cell-based; settings: Bacillus anthracis, STERNE34F2, read-out: approximate MIC, B. anthracis (first value)
[3] = test system: S. aureus (MCR); experiment: microbe, parasite or virus in culture; type: cell-based; settings: Staphylococcus aureus, read-out: Minimal Inhibitory Concentration (MIC), S. aureus (MCR), multiple values = two or more tests
[4] = test system: rabbit primary renal cells (RPRC); experiment: Cytotoxicity in rabbit primary renal cells (annexin V / PI flow cytometry); type: cell-based; settings: 24 hr, mean ± SEM
Experimental: Cytotoxicity in Rabbit Primary Renal Cells
Isolation of Proximal Tubules and Culture Conditions
Rabbit renal proximal tubules were isolated using the iron oxide perfusion method and grown in 35-mm tissue culture dishes under improved conditions. The cell culture medium was a 1:1 mixture of DMEM/Ham's F-12 (without D-glucose, phenol red, or sodium pyruvate) supplemented with 15 mM HEPES buffer, 2.5 mM L-gluatmine, 1 μM pyridoxine HCL, 15 mM sodium bicarbonate, and 6 mM lactate. Hydrocortisone (50 nM), selenium (5 ng/mL), human transferrin (5 μg/mL), bovine insulin (10 nM) and L-ascorbic acid-2-phosphate (50 μM) were added to fresh culture medium immediately prior to daily media change.
All numbered compounds were diluted in methanol and the final concentration of methanol in RPRC was less then 0.1% (v/v).
Measurement of RPRC Death
Cell death was monitored in RPRC by assessment of both annexin V and PI staining using flow cytometry. Briefly, RPRC were exposed to the indicated concentrations of compounds for 24 hr. Media was removed and RPRC washed twice with phosphate-buffered saline (PBS) and incubated in a binding buffer (10 mM HEPES, 140 mM NaCL, 5 mM KCL, 1 mM MgCl2, 1.8 mM CaCl2, pH=7.4) containing annexin V-FITC (1 μmol) and PI (25 μg/mL). After a 10 min incubation, RPRC were washed three times in the binding buffer and were released from the monolayers by gentle scrapping with a rubber policeman. Annexin V and PI staining were measured using a BectonDickson FacsCalibur flow cytometer (San Jose, Calif.). An equal number of cells (10,000) were counted for sample and apoptotic cells were defined as those that stained positive for annexin V-FITC only. RPRC undergoing necrotic cell death stained for PI only.
RPRC isolated from one rabbit represented one experiment (n=1). Data were analyzed and are reported as means±standard error of the mean of at least 3 separate experiments.

[5] = test system: B. subtilis; experiment: microbe, parasite or virus in culture; type: cell-based; settings: Bacillus subtilis, multiple values = two or more tests; read-out: Minimal Inhibitory Concentration (MIC), B. subtilis
[6] = test system: C. albicans; experiment: MIC test, fungal growth inhibition; type: cell-based; settings: in vitro
Experimental: (§1) The MIC test procedures conformed to the present protocol from the National Committee for Clinical Laboratory Standards (NCCLS), and were designed to provide basic antimicrobial data on compounds based on the MIC of the active component.
(§2) The test compounds were solubilized, diluted, and pipetted in duplicate into 10 mL sterile culture tubes and dried under vacuum.
(§3) Challenge organisms, specified were grown overnight at 37° C. in the appropriate medium (i.e., Mueller-Hinton Broth). These pure broth cultures were diluted 1:1,000 and 2.0 mL were added to the test compound tubes.
(§4) Appropriate media controls, challenge organism viability controls, and antibiotic control dilutions (i.e., ampicillin and nystatin), were prepared in the same manner as the test compounds and run against the challenge organisms.

[7] = test system: A. niger; experiment: MIC test, fungal growth inhibition; type: cell-based; settings: in vitro
Experimental: Antimicrobial Testing (P. aeruginosa, E. coli, B. subtilis, S. aureus, S. aureus (MCR), A. niger and M. flavescens.)
as §1, §2, §3, §4

Sequence of NAD synthetase (P08164 whole entry): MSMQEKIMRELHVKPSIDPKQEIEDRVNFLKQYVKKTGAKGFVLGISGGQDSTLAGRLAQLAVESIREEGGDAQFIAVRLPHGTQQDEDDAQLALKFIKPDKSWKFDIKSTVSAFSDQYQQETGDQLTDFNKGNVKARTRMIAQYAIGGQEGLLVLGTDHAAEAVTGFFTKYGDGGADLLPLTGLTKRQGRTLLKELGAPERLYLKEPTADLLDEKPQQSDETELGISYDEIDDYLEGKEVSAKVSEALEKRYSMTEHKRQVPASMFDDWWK

Row | Compound | IC50 [1] [µM] | further results
1 | N=C(N)N[C@@H](Cc1ccccc1)C(=O)NCCCCCCCCOc1ccc(OCc2ccccc2)cc1 [Compound 1682] | 17.6 | –
2 | C[N+]1([C@@H](Cc2ccccc2)C(=O)NCCCCCCCCOc2ccc(OCc3ccccc3)cc2)CCCC1 [Compound 1495] | 33.4 | –
3 | C[N+](C)(C)C(Cc1ccccc1)C(=O)NCCCCCCCCOc1ccc(OC(=O)c2cccc(Cl)c2Cl)cc1 (stereo not shown) [Compound 1603] | 34.9 | –
4 | C[N+](C)(C)C(Cc1ccccc1)C(=O)NCCCCCCCCOc1ccc(OC(=O)c2cc(F)cc(F)c2F)cc1 (stereo not shown) [Compound 1617] | 31.4 | MIC [2]: 16 µg/mL; MIC [3]: < 6.25 µg/mL; % CELLULAR NECROSIS (RPRC) ([4]; at 300 μM): 18 ± 2%; % APOPTOSIS (RPRC) ([4]; at peak effect (30 μM)): 23 ± 3%; MIC [5]: < 12.5 µg/mL
5 | C[n+]1cccc(C(=O)NCCCCCCCCOc2ccc(OC(=O)c3cccc(Cl)c3Cl)cc2)c1 [Compound 1661] | 23.7 | –
6 | COC(=O)c1ccc(OCCCCCCCCOC(=O)Cc2ccc([N+](C)(C)C)cc2)cc1OCc1ccccc1 [Compound 1186] | 46.1 | –
7 | C[N+](C)(C)C(Cc1c[nH]c2ccccc12)C(=O)OCCCCCCCn1ccc2cc(OCc3ccccc3)ccc21 (stereo not shown) [Compound 1505] | 6.6 | MIC [3]: < 0.78 µg/mL; MIC [5]: < 0.78 µg/mL
8 | C[N+](C)(C)c1ccc(CC(=O)NCCCCCCCCOc2ccc(OC(=O)c3ccccc3Cl)cc2)cc1 [Compound 1622] | 34.2 | –
9 | CC(=O)Oc1ccc(C(=O)Oc2ccc(OCCCCCCCCOC(=O)C(Cc3ccccc3)[N+](C)(C)C)cc2)cc1 (stereo not shown) [Compound 1475] | 22.6 | –
10 | C[N+](C)(C)C(Cc1ccccc1)C(=O)NCCCCCCCCOc1ccc(OC(=O)c2cc(F)c(F)c(F)c2)cc1 (stereo not shown) [Compound 1621] | 25.5 | –
11 | C[N+](C)(C)C(Cc1ccccc1)C(=O)OCCCCCCCCOc1ccc(OC(=O)c2ccccc2)cc1 (stereo not shown) [Compound 1431] | 18.2 | –
12 | C[C@@H]1[C@H](O)[C@@H](C)/C=C/C=C/C=C/C=C/C=C/C=C/C=C/[C@H](O[C@@H]2O[C@H](C)[C@@H](O)[C@H](N)[C@@H]2O)C[C@@H]2O[C@](O)(C[C@@H](O)C[C@@H](O)[C@H](O)CC[C@@H](O)C[C@@H](O)CC(=O)O[C@H]1C)C[C@H](O)[C@H]2C(=O)O [Amphotericin B, reference compound] | – | Potency to inhibit growth, C. albicans (MIC) [6]: <1.56 µg/mL; Potency to inhibit growth, A. niger (MIC) [7]: <1.56 µg/mL
13 | C[N+](C)(C)[C@@H](Cc1ccccc1)C(=O)OCCCCCCCCOc1ccc2oc(-c3ccccc3)cc(=O)c2c1 [Compound 1371] | 19.1 | –
14 | C[N+](C)(C)C(Cc1ccccc1)C(=O)OCCCCCCCCOc1ccc(OC(=O)c2ccc(-n3ccnc3)cc2)cc1 (stereo not shown) [Compound 1486] | 37.8 | –
